Counter-ions that a name gives are not always drawn. Like-named read-outs stand apart in the source and are kept apart here.
Experiments:
E. coli (Ec) = experiment: Broth microdilution MIC, E. coli; type: cell-based; settings: for MIC: Escherichia coli, read-out: E. coli + bicarb 25 (MIC)
Description: (§1) A certified BSL-2 laboratory was used for testing. Compounds were evaluated using the broth microdilution minimum inhibitory concentration (MIC) and minimum bactericidal concentration (MBC) assays defined by Clinical and Laboratory Standards Institute (CLSI) in the M26-A guideline against S. aureus (Sa), E. coli (Ec), K. pneumoniae (Kp), A. baumannii (Ab), E. faecalis (Ef) and P. aeruginosa (Pa).
(§2) MICs were determined using the Clinical Laboratory and Standards Institute (CLSI) Broth Microdilution Method with slight modification. Clinical and Laboratory Standards Institute (2012). “Methods for dilution antimicrobial susceptibility tests for bacteria that grow aerobically; approved standard, 9th ed. M07-A9. Clinical and Laboratory Standards Institute, Wayne, PA.” Serial two-fold dilutions of compounds are prepared in sterile clear round-bottom 96-well plates.
(§3) To prepare microdilution trays, two-fold dilutions of antimicrobial agent are prepared in growth medium: Cation-Adjusted Mueller-Hinton Broth (CAMHB), or CAMHB supplemented with sodium bicarbonate (25 mM final concentration prepared from a 1.0 M stock solution) or CAMHB supplemented with heat inactivated human serum (Fisher Cat. #BP2657100) 0-50% by adding 200 μL of the highest concentration to be tested (64 μg/mL, for example) in row A, mixing and transferring 100 μL from row A to 100 μL growth medium in row B, then repeating the mixing and transferring through row H of the 96-well plate, discarding the excess 100 μL remaining. This slight modification to the CLSI protocol enables evaluation of MICs for 3 compounds per plate in triplicate, albeit with only 8 compound dilutions (CLSI protocol enables 2 compounds in triplicate with 10 dilutions). Bacterial suspensions are added to a final concentration of 5×10^4 CFU/well by adding 5 μL of a 1:10 dilution of a 0.5 McFarland suspension (1×10^8 CFU/mL) for each bacterium evaluated. Bacterial suspensions were prepared using the growth method described by CLSI. Well-isolated colonies (3-5 from an agar plate) were selected using a sterile loop and used to inoculate a tube containing 4 mL of CAMHB. The cultures are incubated at 35±2° C. until it achieves or exceeds the turbidity of the 0.5 McFarland standard, determined by measuring A600nm (usually two to six hours). When growth exceeds a 0.5 McFarland standard, the turbidity is adjusted with broth to be equivalent to a 0.5 McFarland standard.

E. coli S30 extract = experiment: E. coli S30 extract: inhibition of bacterial protein synthesis (luciferase); type: biochemical; settings: 37° C. 1 hour
How it was run: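 Coupled transcription-translation in E. coli S30 extract, programmed with pBESTluc plasmid, was run with 8-point 2-fold compound dilutions for 1 h at 37 °C. After a cold stop, luciferase luminescence was read and percent inhibition calculated against no-inhibitor controls.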

P. aeruginosa (Pa) = experiment: Broth microdilution MIC, P. aeruginosa; type: cell-based; settings: for MIC: Pseudomonas aeruginosa, read-out: Pa + bicarb 25 (MIC)
Description: as §1, §2, §3

E. faecalis (Ef) = experiment: Broth microdilution MIC, E. faecalis; type: cell-based; settings: for MIC: Enterococcus faecalis, read-out: Ef + bicarb 25 (MIC)
Description: as §1, §2, §3

S. aureus (Sa) = experiment: Broth microdilution MIC, S. aureus; type: cell-based; settings: for MIC: Staphylococcus aureus, read-out: Sa + bicarb 25 (MIC)
Description: as §1, §2, §3

[1] = target: Rabbit Reticulocyte Lysate; experiment: Rabbit Reticulocyte Lysate: inhibition of eukaryotic protein synthesis (luciferase); type: biochemical; settings: 30° C. 90 minutes, read-out: Retic. IC50
How it was run: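 Nuclease-treated rabbit reticulocyte lysate translating luciferase control RNA with complete amino acids; compounds in 8-point 2-fold dilutions, 90 min at 30° C. Luminescence read after luciferase reagent; % inhibition versus water (no-inhibitor) control, no-RNA wells as background.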

A. baumannii (Ab) = experiment: Broth microdilution MIC, A. baumannii; type: cell-based; settings: for MIC: Acinetobacter baumannii, read-out: Ab + bicarb 25 (MIC); for Ab + bicarb 25 (MIC): hydrochloride salt
Description: as §1, §2, §3

[2] = E. coli, CAMHB supplemented with sodium bicarbonate 25 mM
[3] = P. aeruginosa, CAMHB supplemented with sodium bicarbonate 25 mM
[4] = S. aureus, CAMHB supplemented with sodium bicarbonate 25 mM
[5] = E. faecalis, CAMHB supplemented with sodium bicarbonate 25 mM
[6] = A. baumannii, CAMHB supplemented with sodium bicarbonate 25 mM

SMILES	MIC (E. coli (Ec))	IC50 (E. coli S30 extract)	MIC (P. aeruginosa (Pa))	MIC (E. faecalis (Ef))	MIC (S. aureus (Sa))	IC50 [1]	MIC (A. baumannii (Ab))	E. coli + bicarb 25 (MIC) (E. coli (Ec); [2])	IC50 (E. coli S30 extract; hydrochloride salt)	Pa + bicarb 25 (MIC) (P. aeruginosa (Pa); [3])	Sa + bicarb 25 (MIC) (S. aureus (Sa); [4])	MIC (E. coli (Ec); [2])	MIC (P. aeruginosa (Pa); [3])	MIC (E. faecalis (Ef); [5])	MIC (S. aureus (Sa); [4])	Ab + bicarb 25 (MIC) (A. baumannii (Ab); [6])	Ef + bicarb 25 (MIC) (E. faecalis (Ef); E. faecalis, CAMHB supplemented with sodium bicarbonate 25 mM, hydrochloride salt)	MIC (A. baumannii (Ab); [6])
CC(C)(N)C(=O)N1CCN(C(=O)Nc2ccn(C3=CCC(CN4CCCC(N)CC4)CC3)c(=O)n2)CC1 (centres unmarked) [Compound 4, 4-(2-Amino-2-methylpropanoyl)-N-(1-(4-((4-aminoazepan-1-yl)methyl)cyclohex-1-en-1-yl)-2-oxo-1,2-dihydropyrimidin-4-yl)piperazine-1-carboxamide hydrochloride salt]	< 8 µg/mL	< 500 nM	> 32 µg/mL	< 8 µg/mL	< 8 µg/mL	≥ 1000 nM	> 32 µg/mL	–	–	–	–	–	–	–	–	–	–	–
CC(C)(N)C(=O)N1CCN(C(=O)Nc2ccn(C3CCC(CN4C[C@@H]5[C@@H](N)[C@@H]5C4)CC3)c(=O)n2)CC1 (stereo partly drawn) [Compound 5, 4-(2-Amino-2-methylpropanoyl)-N-(1-(4-((exo-6-amino-3-azabicyclo[3.1.0]hexan-3-yl)methyl)cyclohexyl)-2-oxo-1,2-dihydropyrimidin-4-yl)piperazine-1-carboxamide hydrochloride salt]	–	–	–	< 8 µg/mL	–	≥ 1000 nM	8 to 32 µg/mL	+++ (An MIC value (μg/mL) that is less than 8 μg/mL)	< 500 nM	+ (An MIC value (μg/mL) that is 32 μg/mL or greater)	+++ (An MIC value (μg/mL) that is less than 8 μg/mL)	–	–	–	–	–	–	–
CC(C)(N)C(=O)N1CCN(C(=O)Nc2ccn(C3CCC(CN4C[C@@H]5[C@@H](N)[C@@H]5C4)CC3)c(=O)n2)CC1 (stereo partly drawn) [Compound 6, 4-(2-Amino-2-methylpropanoyl)-N-(1-(cis-4-((exo-6-amino-3-azabicyclo[3.1.0]hexan-3-yl)methyl)cyclohexyl)-2-oxo-1,2-dihydropyrimidin-4-yl)piperazine-1-carboxamide hydrochloride salt]	–	–	–	–	–	≥ 1000 nM	–	–	≥ 1000 nM	–	–	< 8 µg/mL	> 32 µg/mL	8 to 32 µg/mL	< 8 µg/mL	+ (An MIC value (μg/mL) that is 32 μg/mL or greater)	–	–
CC(C)(N)C(=O)N1CCN(C(=O)Nc2ccn(C3CCC(CN4C[C@@H]5[C@@H](N)[C@@H]5C4)CC3)c(=O)n2)CC1 (stereo partly drawn) [Compound 7, 4-(2-Amino-2-methylpropanoyl)-N-(1-(trans-4-((exo-6-amino-3-azabicyclo[3.1.0]hexan-3-yl)methyl)cyclohexyl)-2-oxo-1,2-dihydropyrimidin-4-yl)piperazine-1-carboxamide hydrochloride salt]	–	–	–	–	–	≥ 1000 nM	–	+++ (An MIC value (μg/mL) that is less than 8 μg/mL)	< 500 nM	+ (An MIC value (μg/mL) that is 32 μg/mL or greater)	+++ (An MIC value (μg/mL) that is less than 8 μg/mL)	–	–	–	–	++ (An MIC value (μg/mL) that is 8 μg/mL or greater and less than 32 μg/mL)	+++ (An MIC value (μg/mL) that is less than 8 μg/mL)	–
CC(C)(N)C(=O)N1CCN(C(=O)Nc2ccn(C3CCC(CN4C[C@@H]5[C@@H](CN)[C@@H]5C4)CC3)c(=O)n2)CC1 (stereo partly drawn) [Compound 8, 4-(2-Amino-2-methylpropanoyl)-N-(1-(4-((exo-6-(aminomethyl)-3-azabicyclo[3.1.0]hexan-3-yl)methyl)cyclohexyl)-2-oxo-1,2-dihydropyrimidin-4-yl)piperazine-1-carboxamide hydrochloride salt]	–	< 500 nM	–	–	–	≥ 1000 nM	–	–	–	–	–	< 8 µg/mL	8 to 32 µg/mL	< 8 µg/mL	< 8 µg/mL	–	–	> 32 µg/mL
CC(C)(N)C(=O)N1CCN(C(=O)Nc2ccn(C3CCC(CN4CCCC(N)CC4)CC3)c(=O)n2)CC1 (centres unmarked) [Compound 9, 4-(2-Amino-2-methylpropanoyl)-N-(1-(4-((4-aminoazepan-1-yl)methyl)cyclohexyl)-2-oxo-1,2-dihydropyrimidin-4-yl)piperazine-1-carboxamide hydrochloride salt]	< 8 µg/mL	< 500 nM	> 32 µg/mL	< 8 µg/mL	< 8 µg/mL	≥ 1000 nM	8 to 32 µg/mL	–	–	–	–	–	–	–	–	–	–	–
CC(C)(N)C(=O)N1CCN(C(=O)Nc2ccn(C3=CCC(CN4C[C@@H]5[C@@H](N)[C@@H]5C4)CC3)c(=O)n2)CC1 (stereo partly drawn) [Compound 12, 4-(2-Amino-2-methylpropanoyl)-N-(1-(4-(((1R,5S,6s)-6-amino-3-azabicyclo[3.1.0]hexan-3-yl)methyl)cyclohex-1-en-1-yl)-2-oxo-1,2-dihydropyrimidin-4-yl)piperazine-1-carboxamide hydrochloride salt]	–	< 500 nM	–	–	–	≥ 1000 nM	–	–	–	–	–	< 8 µg/mL	> 32 µg/mL	< 8 µg/mL	< 8 µg/mL	–	–	8 to 32 µg/mL
CC(C)(N)C(=O)N1CCN(C(=O)Nc2ccn(C3CCC(CN[C@H]4CC[C@H](N)C4)CC3)c(=O)n2)CC1 (stereo partly drawn) [Compound 13, 4-(2-Amino-2-methylpropanoyl)-N-(1-(4-((((1S,3S)-3-aminocyclopentyl)amino)methyl)cyclohexyl)-2-oxo-1,2-dihydropyrimidin-4-yl)piperazine-1-carboxamide hydrochloride salt]	< 8 µg/mL	< 500 nM	> 32 µg/mL	8 to 32 µg/mL	< 8 µg/mL	≥ 1000 nM	> 32 µg/mL	–	–	–	–	–	–	–	–	–	–	–
CC(C)(N)C(=O)N1CCN(C(=O)Nc2ccn(C3CCC(CN4CC(CN)C4)CC3)c(=O)n2)CC1 (centres unmarked) [Compound 14, 4-(2-Amino-2-methylpropanoyl)-N-(1-(4-((3-(aminomethyl)azetidin-1-yl)methyl)cyclohexyl)-2-oxo-1,2-dihydropyrimidin-4-yl)piperazine-1-carboxamide hydrochloride salt]	< 8 µg/mL	< 500 nM	> 32 µg/mL	8 to 32 µg/mL	< 8 µg/mL	≥ 1000 nM	> 32 µg/mL	–	–	–	–	–	–	–	–	–	–	–
CC(C)(N)C(=O)N1CCN(C(=O)Nc2ccn(C3CCC(CN4CCC5(CC4)CC(N)C5)CC3)c(=O)n2)CC1 (centres unmarked) [Compound 16, 4-(2-Amino-2-methylpropanoyl)-N-(1-(4-((2-amino-7-azaspiro[3.5]nonan-7-yl)methyl)cyclohexyl)-2-oxo-1,2-dihydropyrimidin-4-yl)piperazine-1-carboxamide hydrochloride salt]	< 8 µg/mL	< 500 nM	8 to 32 µg/mL	< 8 µg/mL	< 8 µg/mL	≥ 1000 nM	< 8 µg/mL	–	–	–	–	–	–	–	–	–	–	–
CC(C)(N)C(=O)N1CCN(C(=O)Nc2ccn([C@H]3CC[C@H](CN[C@H]4CC[C@@H](N)CC4)CC3)c(=O)n2)CC1 [Compound 17, 4-(2-Amino-2-methylpropanoyl)-N-(1-(trans-4-(((cis-4-aminocyclohexyl)amino)methyl)cyclohexyl)-2-oxo-1,2-dihydropyrimidin-4-yl)piperazine-1-carboxamide hydrochloride salt]	< 8 µg/mL	< 500 nM	> 32 µg/mL	< 8 µg/mL	< 8 µg/mL	≥ 1000 nM	> 32 µg/mL	–	–	–	–	–	–	–	–	–	–	–

From patent US20250084041A1, “ANTIMICROBIAL COMPOUNDS AND METHODS” (Curza Global, LLC, priority 2021, published 2025)
